These results are taken from patent US11304919B2, “Utilization of cilastatin in inhibiting renal disorder” (NIIGATA UNIVERSITY, priority 2018, dated 2022).

For series [1], the system named is protein of interest (carrier; megalin ligand). Nature of the series: Binding of contrast solid-phased magnetic beads to carrier protein, WB (Reference Example 5). The note with it: 0/3/10 mM iomeprol solid-phased beads; protein 25 ng/μL; 4° C., 4 h; FIG. 21. An excerpt: A substance that can serve as a carrier for an iodinated contrast medium was selected by reference to the information reported on megalin ligands. To be specific, one protein known to be filtered at the glomeruli and resorbed by renal proximal tubular epithelial cells via megalin was selected among megalin ligands.
The binding specificity between this protein and an iodinated contrast medium was verified using contrast solid-phased magnetic beads by following the procedures described below.
Five milligrams each of the 0 mM/3 mM/10 mM contrast solid-phased beads prepared in Reference Example 4 were dispersed and washed according to the procedure described in Reference Example 4. Next, the protein of interest (produced by LifeSpan BioSciences, Inc.) was dissolved in 100 mM KCL to prepare a 25 ng/μL solution. The above-washed beads were each dispersed in 200 μL of the prepared solution and reacted at 4° C. for 4 hours. Then, heat-eluted samples were prepared by following the procedure described in Reference Example 4.
The procedures for sample electrophoresis and WB analysis were performed in accordance with Reference Example 4. An antibody against the protein of interest (a polyclonal antibody produced by Bioss Inc.) was added at a concentration of 2 μg/mL and reacted at room temperature for 2 hours.

The target of series [2] is megalin (Rattus norvegicus, UniProt P98158). Nature of the series: Direct binding of contrast solid-phased magnetic beads to megalin in brush border proteins, WB with anti-megalin antibody (Reference Example 4). The following applies: 0 mM and 10 mM iomeprol solid-phased beads; rat BBP 1 mg/mL; 4° C., 4 h; FIG. 20. Also noted: the cortex portions of Sprague-Dawley (SD) rats were ground to prepare a suspension; from tissue; host or cells: Sprague-Dawley rat kidney cortex (brush border proteins, method of Orlando et al.). As for the experimental part: Direct binding between an iodinated contrast medium and megalin was verified using contrast solid-phased magnetic beads.
A starting powder of iodinated contrast medium was dissolved, just before use, in glycidylmethacrylate-coated magnetic beads (FG Beads®, particle size: 0.2 μm, produced by Tamagawa Seiki Co., Ltd.) to initiate chemical bonding between surface carboxyl groups and hydroxyl groups present in the contrast medium, whereby contrast solid-phased magnetic beads were prepared.
The contrast medium iomeprol was purchased from BOC Science.
At feed concentrations of 0 mM, 3 mM and 10 mM, iomeprol was brought to a solid phase by chemical bonding. The preparation of the iomeprol solid-phased beads was contracted to Tamagawa Seiki Co., Ltd.
According to the method of Orlando, et al. (Proc. Natl. Acad. Sci. USA, 1992, vol. 89, p. 6698-6702), the cortex portions of Sprague-Dawley (SD) rats were ground to prepare a suspension, which was adjusted to a protein concentration of 1 mg/mL to obtain a BBP solution.
Five milligrams each of the 0 mM and 10 mM contrast solid-phased magnetic beads were dispersed and washed in 200 μL of 100 mM KCL buffer (20 mM HEPES-NaOH (pH 7.9), 100 mM KCl, 1 mM MgCl2, 0.2 mM CaCl2), 0.2 mM EDTA, 10% (v/v) glycerol, 0.1% NP-40, 1 mM DTT, 0.2 mM PMSF). […]

In series [3] the test system is C57BL/6J mice. Nature of the series: Murine model of contrast nephropathy (Reference Example 1). It counts as in vivo, mouse. As for the experimental part:
Murine models of contrast nephropathy were constructed.
Left kidneys were extracted from C57BL/6J mice (male, aged 9-12 weeks, Charles River Laboratories International), and 14 days later, right kidney pedicles were ligated for 30 minutes. Thereafter, reperfusion was carried out. For the iomeprol-treated group, 200 μL of iomeprol was administered from the tail vein after 24 hours from the start of reperfusion. For the control group, 200 μL of normal saline instead of iomeprol was administered from the tail vein. After 48 hours from the administration, the animals in both groups were euthanized and evaluated.
For 24 hours before euthanization, urine samples were collected using a metabolic cage. […] The collected blood samples were centrifuged for 30 minutes at 800 g at room temperature to separate and collect the serum. The obtained urine and serum samples were stored at −80° C. until analysis.
For biochemical evaluation of renal injuries, serum creatinine (Cr) and urea nitrogen (MN) levels, and urinary Cr and β-D-N-acetylglucosaminidase (NAG) were measured. Serum MN and Cr measurements were contracted to Oriental Yeast Co., Ltd., and urinary NAG and Cr measurements were to SRL, Inc.
The obtained thin slices were stained with periodic acid-Shiff (PAS) and immunostained with the renal injury marker Kidney Injury Molecule-1 (KIM-1). The immunostaining was performed using VECTASTAIN Elite ABC Kit (Vector Laboratories, Inc.).

Chain of megalin (P98158 26-4660): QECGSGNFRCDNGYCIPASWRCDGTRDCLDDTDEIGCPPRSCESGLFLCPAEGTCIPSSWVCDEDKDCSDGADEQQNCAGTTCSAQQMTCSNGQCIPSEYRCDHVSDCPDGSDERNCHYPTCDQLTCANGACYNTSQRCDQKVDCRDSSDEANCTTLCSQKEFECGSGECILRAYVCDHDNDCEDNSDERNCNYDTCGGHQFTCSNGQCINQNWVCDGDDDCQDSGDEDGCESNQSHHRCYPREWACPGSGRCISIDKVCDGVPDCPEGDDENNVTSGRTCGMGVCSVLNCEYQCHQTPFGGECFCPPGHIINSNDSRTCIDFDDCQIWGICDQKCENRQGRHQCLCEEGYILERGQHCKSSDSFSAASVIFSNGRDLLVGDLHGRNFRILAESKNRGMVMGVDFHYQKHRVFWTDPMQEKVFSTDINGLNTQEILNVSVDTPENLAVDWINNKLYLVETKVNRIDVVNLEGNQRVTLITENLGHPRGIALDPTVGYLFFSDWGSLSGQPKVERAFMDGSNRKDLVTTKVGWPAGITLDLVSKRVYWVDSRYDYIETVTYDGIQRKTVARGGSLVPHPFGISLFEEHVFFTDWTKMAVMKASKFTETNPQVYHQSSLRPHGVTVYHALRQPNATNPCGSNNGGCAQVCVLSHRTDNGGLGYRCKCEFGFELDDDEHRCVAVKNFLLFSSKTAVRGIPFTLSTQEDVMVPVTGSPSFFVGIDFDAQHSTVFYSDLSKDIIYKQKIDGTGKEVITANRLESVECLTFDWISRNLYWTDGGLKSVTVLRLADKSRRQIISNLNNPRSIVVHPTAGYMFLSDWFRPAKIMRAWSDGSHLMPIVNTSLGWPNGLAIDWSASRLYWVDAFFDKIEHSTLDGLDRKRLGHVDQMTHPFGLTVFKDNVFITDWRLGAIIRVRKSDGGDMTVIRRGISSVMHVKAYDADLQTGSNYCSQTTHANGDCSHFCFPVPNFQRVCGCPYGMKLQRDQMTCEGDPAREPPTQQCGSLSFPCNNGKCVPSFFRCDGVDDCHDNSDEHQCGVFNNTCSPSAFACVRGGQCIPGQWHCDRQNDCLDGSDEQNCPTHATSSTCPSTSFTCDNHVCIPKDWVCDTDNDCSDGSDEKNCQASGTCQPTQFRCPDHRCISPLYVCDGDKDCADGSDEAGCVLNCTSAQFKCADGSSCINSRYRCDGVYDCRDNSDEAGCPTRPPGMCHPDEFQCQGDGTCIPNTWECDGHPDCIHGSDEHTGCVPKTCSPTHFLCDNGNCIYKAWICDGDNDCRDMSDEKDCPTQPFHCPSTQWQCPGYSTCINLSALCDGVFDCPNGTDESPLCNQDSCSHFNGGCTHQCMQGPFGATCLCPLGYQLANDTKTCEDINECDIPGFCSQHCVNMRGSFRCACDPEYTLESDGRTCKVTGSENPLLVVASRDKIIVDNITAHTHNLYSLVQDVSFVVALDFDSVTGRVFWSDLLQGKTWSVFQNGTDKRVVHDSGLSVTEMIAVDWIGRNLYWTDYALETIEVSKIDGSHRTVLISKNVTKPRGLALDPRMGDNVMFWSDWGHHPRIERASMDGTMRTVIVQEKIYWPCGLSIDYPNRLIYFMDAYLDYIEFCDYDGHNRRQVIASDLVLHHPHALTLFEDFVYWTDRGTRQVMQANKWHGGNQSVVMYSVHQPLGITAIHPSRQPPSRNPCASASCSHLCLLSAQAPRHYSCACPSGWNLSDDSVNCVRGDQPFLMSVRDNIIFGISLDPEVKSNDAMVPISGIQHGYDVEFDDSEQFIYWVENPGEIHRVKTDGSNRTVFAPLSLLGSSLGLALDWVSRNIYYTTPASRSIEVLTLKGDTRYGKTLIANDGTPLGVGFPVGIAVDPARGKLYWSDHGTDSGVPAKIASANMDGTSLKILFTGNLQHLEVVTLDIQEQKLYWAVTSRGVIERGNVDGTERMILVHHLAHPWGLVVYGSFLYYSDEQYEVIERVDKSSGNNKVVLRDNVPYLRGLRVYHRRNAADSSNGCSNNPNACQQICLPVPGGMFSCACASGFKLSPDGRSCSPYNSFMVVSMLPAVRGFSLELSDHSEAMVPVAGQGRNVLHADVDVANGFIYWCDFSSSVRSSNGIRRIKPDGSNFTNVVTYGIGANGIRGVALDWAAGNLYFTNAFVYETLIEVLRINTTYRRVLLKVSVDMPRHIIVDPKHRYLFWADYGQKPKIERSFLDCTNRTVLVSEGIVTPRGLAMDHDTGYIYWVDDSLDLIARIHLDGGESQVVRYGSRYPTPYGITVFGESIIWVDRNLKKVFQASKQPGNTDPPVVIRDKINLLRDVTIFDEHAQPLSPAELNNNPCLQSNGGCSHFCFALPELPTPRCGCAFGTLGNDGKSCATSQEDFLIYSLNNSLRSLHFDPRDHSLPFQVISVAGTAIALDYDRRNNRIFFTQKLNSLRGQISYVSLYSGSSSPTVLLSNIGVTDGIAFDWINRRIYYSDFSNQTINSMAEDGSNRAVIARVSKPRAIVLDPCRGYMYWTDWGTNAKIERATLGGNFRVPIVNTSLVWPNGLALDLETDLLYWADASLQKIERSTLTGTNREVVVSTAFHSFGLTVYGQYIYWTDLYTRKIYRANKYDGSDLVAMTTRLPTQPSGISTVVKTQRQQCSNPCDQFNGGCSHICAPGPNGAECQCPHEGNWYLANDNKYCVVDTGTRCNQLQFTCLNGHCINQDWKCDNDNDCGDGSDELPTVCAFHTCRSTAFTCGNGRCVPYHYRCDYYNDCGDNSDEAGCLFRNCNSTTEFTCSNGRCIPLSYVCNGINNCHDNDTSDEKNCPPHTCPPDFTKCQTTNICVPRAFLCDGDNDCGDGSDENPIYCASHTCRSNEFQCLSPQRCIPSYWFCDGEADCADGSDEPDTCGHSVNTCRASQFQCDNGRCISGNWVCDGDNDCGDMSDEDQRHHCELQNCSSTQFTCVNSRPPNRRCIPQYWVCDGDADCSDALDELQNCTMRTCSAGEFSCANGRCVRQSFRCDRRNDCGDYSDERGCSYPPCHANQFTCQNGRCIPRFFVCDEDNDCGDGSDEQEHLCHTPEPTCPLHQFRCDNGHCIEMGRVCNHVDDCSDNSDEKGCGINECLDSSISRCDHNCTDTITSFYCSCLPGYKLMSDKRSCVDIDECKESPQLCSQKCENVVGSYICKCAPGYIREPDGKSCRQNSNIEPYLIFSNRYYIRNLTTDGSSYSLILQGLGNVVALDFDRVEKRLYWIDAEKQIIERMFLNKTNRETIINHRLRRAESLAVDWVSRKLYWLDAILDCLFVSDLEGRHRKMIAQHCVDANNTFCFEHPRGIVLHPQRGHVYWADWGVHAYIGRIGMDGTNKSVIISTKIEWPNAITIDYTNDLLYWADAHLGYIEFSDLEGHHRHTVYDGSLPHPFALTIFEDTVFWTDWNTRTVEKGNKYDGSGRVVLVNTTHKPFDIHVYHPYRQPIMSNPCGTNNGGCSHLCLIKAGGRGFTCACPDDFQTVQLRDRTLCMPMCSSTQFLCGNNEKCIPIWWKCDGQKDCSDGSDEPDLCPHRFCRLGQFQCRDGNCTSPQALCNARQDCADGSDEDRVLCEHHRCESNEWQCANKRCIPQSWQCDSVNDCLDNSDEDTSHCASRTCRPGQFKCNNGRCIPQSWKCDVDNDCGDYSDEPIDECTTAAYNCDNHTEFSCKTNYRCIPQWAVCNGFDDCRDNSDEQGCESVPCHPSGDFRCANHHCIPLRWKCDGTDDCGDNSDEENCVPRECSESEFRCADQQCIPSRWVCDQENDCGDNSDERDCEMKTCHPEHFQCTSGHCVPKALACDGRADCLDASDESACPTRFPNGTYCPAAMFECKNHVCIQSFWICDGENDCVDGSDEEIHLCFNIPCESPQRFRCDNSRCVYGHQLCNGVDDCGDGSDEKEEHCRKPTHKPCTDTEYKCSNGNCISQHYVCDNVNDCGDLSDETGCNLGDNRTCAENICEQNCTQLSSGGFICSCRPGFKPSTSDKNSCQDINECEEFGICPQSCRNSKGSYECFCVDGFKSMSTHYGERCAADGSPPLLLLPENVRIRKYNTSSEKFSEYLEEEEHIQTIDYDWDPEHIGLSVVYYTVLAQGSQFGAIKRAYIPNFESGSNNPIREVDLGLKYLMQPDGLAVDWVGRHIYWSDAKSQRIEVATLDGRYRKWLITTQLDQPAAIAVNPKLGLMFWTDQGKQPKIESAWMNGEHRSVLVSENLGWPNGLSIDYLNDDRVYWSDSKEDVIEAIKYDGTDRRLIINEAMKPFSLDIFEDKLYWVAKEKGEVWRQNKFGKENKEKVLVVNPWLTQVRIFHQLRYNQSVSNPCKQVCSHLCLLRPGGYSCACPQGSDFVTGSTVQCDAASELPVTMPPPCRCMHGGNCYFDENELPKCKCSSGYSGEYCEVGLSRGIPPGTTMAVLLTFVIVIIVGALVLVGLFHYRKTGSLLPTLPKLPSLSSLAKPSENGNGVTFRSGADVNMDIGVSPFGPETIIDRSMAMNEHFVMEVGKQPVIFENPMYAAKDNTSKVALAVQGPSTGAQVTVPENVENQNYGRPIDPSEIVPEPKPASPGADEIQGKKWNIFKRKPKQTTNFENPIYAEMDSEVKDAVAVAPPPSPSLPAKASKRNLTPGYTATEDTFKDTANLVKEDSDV

For the molecule `CN(C(=O)CO)c1c(I)c(C(=O)NCC(O)CO)c(I)c(C(=O)NCC(O)CO)c1I` (centres unmarked) [iomeprol], the “binding of protein of interest to contrast solid phased on beads (WB band, heat-eluted samples)” value in series [1] is listed as “bound in a specific manner”. In addition, in series [2], the “megalin band in eluted samples after reaction of BBP with contrast medium-bound beads (WB)” value was “not detected”. Besides, the “serum Cr compared to the control (NS) group” value in series [3] (200 μL iomeprol tail vein 24 h after reperfusion, evaluated 48 h after administration, FIG. 1) was “significant (t-test) increase”. Moreover, the “KIM-1 expression in kidney tissue (immunostaining)” value in series [3] (200 μL iomeprol, 48 h after administration, FIG. 2) was “widely expressed mainly in the S1 and S2 segments of renal proximal tubular epithelial cells”. Further, the “PAS staining of kidney tissue” value in series [3] (200 μL iomeprol, 48 h after administration, FIG. 3) was “formation of vacuoles was observed”.
